According to ChEMBL document CHEMBL4229339, “Total syntheses and stereochemical reassignments of mollenines A and B” (Bioorg Med Chem Lett, 2018):
Active and inactive are the calls of the source.

Columns and labels:
Escherichia coli = assay: Antibacterial activity against Escherichia coli at 5 uM; format: functional, organism-based
Bacillus cereus = assay: Antibacterial activity against Bacillus cereus at 5 uM; format: functional, organism-based
Candida albicans = assay: Antifungal activity against Candida albicans at 5 uM; format: functional, organism-based
Homo sapiens = species: Homo sapiens; assay: Cytotoxicity against human HeLa/Fucci cells at 5 uM; format: functional, cell-based

Measured: Activity

CC(C)=CC[C@@]12C[C@H]3C(=O)O[C@H](CC(C)C)C(=O)N3[C@@H]1Nc1ccccc12
inactive: all assays above

CC(C)=CC[C@@]12C[C@H]3C(=O)O[C@@H](CC(C)C)C(=O)N3[C@@H]1Nc1ccccc12
inactive: all assays above

CC(C)=CCC12CC3C(=O)OC(CC(C)C)C(=O)N3C1Nc1ccccc12 (stereo in doubt; (+)-7)
inactive: all assays above

CC(C)=CC[C@@]12C[C@H]3C(=O)O[C@@H](CC(C)C)C(=O)N3[C@@H]1N(C=O)c1ccccc12
inactive: all assays above

CC(C)=CCC12CC3C(=O)OC(CC(C)C)C(=O)N3C1Nc1ccccc12 (single isomer, unassigned; (+))
inactive: all assays above

CC(C)=CC[C@@]12C[C@@H]3C(=O)N[C@@H](CC(C)C)C(=O)N3[C@@H]1Nc1ccccc12
inactive: all assays above
